Data on one compound can be found in patent US20230095912A1, “Composition and Methods for Selective Degradation of Engineered Proteins” (Celgene Corporation, priority 2021, published 2023).

The structures appear in SMILES notation.

The target in experiment [1] is IKZF1 ZNF2-tagged CD19 CAR (Homo sapiens, UniProt Q13422+Q96SW2). The conditions noted are these: jurkat, 1440 min.
Experiment [2] concerns the target CAR tagged with WT ZNF2_3 (Homo sapiens, UniProt Q13422+Q96SW2). The conditions noted are these: higher Compound A concentrations.
Protocol: The IKZF1-ZNF2 degron was further modified to promote improved CAR degradation. Untagged CAR and CAR tagged with the original IKZF1-ZNF2 degrons were tested alongside alternate orientations and combinations of IKZF1 ZNF1, ZNF2, and ZNF3 (FIG. 5A). Each CAR included a CD28 transmembrane domain, a 4-1BB costimulatory domain, and a CD3 (CD3z) signaling domain. The IKZF1 degrons were fused to the C-terminus. […] A lentiviral vector encoding untagged CD19 CAR or CAR tagged with various configurations of IKZF1-ZNFs was transduced into the Jurkat cell line. Transduced cells were first co-cultured with a CD19-expressing K562 target cell line at 37° C. for 7.5 hours, and normalized levels of tdTomato reporter were assessed by flow cytometry.
Experiment [3] concerns CAR tagged with ZNF2_3 containing a G6N mutation. Put plainly: Compound A titration on Jurkat cells with CAR tagged with ZNF2_3 G6N mutant degron. Type of experiment: cell-based, human. The conditions noted are these: any dose. The text has this:
The IKZF1 degrons were fused to the C-terminus. See SEQ ID NOs: 53-57. […] This configuration was therefore selected for further testing.

In experiment [4] the target is IKZF1 ZNF2_3 tagged CD19 CAR (Homo sapiens, UniProt Q13422+Q96SW2). The conditions noted are these: 100 nM pre-treatment 48 hours, co-culture with CD19-expressing K562 8 hours.
Protocol: Function of IKZF1 ZNF2 tagged CD19 CAR T cells (FIG. 2, ZNF2 amino acid sequence of SEQ ID NO: 15) was evaluated in a reporter assay, in which Jurkat cells have been engineered to express tdTomato when the Nur77 gene, associated with CAR and TCR activation, is actively transcribed (FIG. 3). Lentiviral vectors encoding ZNF-tagged CD19 CAR, untagged CD19 CAR, or an untagged BCMA CAR negative control were transduced into the Jurkat reporter cell line. Transduced cells were then co-cultured with a CD19-expressing K562 target cell line at 37° C. Levels of tdTomato, both in the form of mean fluorescence intensity (MFI) and the overall percent of positive cells, were assessed by flow cytometry every 2 hours for 12 hours.
A lentiviral vector encoding ZNF2_3 tagged or untagged CD19 CAR (see Example 2) was transduced into the reporter cell line. […] Levels of tdTomato in the form of mean fluorescence intensity (MFI) (FIG. 6B) and the overall percent of positive cells, as well as normalized CAR levels (FIG. 6C), were assessed by flow cytometry (FIG. 6A).
Experiment [5] concerns WT IKZF1 ZNF2_3-tagged CARs. Briefly: Erk phosphorylation (pErk) western blot after CAR degradation in Jurkat cells. Format: cell-based, human. The conditions noted are these: 1 mM pretreatment 12 hours, co-culture with CD19-expressing K562 30 minutes. The method, then:
Abrogation of signaling with CAR degradation was assessed by measuring activation of the downstream MAPK signaling pathway. Jurkat cells were transduced with untagged, WT degron-tagged, or G6N degron-tagged CAR as described above.
(In general: Immunoblotting shows a protein as a band on a membrane.)

The target of a further experiment is T1, ePL-tagged CK1a (Homo sapiens, UniProt P48729+Q96SW2).
T1 construct: expressed in transfected cells
Briefly: ePL-tagged substrate degradation in MDS-L cells. Format: cell-based. The method, then: (§1) DF15 multiple myeloma cells stably expressing ePL-tagged Aiolos, Ikaros, or GSPT1, and MDS-L cells stably expressing ePL-tagged CK1a were generated via lentiviral infection with pLOC-ePL-Aiolos (or Ikaros, GSPT1, or CK1a). […] Compounds were dispensed by an acoustic dispenser (ATS acoustic transfer system from EDC Biosystems) into a 384-well plate in a 10-point dose response curve using 3-fold dilutions starting at 10 μM and going down to […]. Then, 25 μL of media (RPMI-1640+10% heat inactivated FBS+25 mM Hepes+1 mM Na pyruvate+1× NEAA+1×Pen Strep Glutamine) containing 5000 of DF15 or MSD-L cells was dispensed per well. Assay plates were incubated at 37° C. with 5% CO2 for 4 hours except 20 hours for GSPT1. After incubation, 25 μL of the InCELL Hunter detection reagent working solution (DiscoverX, catalogue no. 96-0002, Fremont, Calif.) was added to each well and incubated at room temperature for 60 min protected from light. After 60 min, luminescence was read on an Envision or PHERAstar luminescence reader.
(§2) To determine the EC50 value of a compound for the degradation of a given substrate (concentration of compound that achieves half the maximum degradation observed), a four-parameter logistic model (sigmoidal dose—response model) (FIT=(A+{(B−A)/1+[(C/x)D]})) where C is the inflection point (EC50), D is the […], and A and B are the low and high limits of the fit, respectively) was used. All substrate degradation curves were processed and evaluated using ActivityBase (IDBS), a data analysis software package. Ymin is minimum percent protein remaining.

Another experiment deals with T2, ePL-tagged GSPT1 (Homo sapiens, UniProt P15170+Q96SW2).
T2 construct: expressed in transfected cells
Put plainly: ePL-tagged substrate degradation in DF15 multiple myeloma cells. Type of experiment: cell-based. The conditions noted are these: read-out: EC50; GSPT1; DF15 cells, 20 hours. The method, then: as §1, §2

The next experiment concerns the target T3, ePL-tagged Ikaros (Homo sapiens, UniProt Q13422+Q96SW2).
T3 construct: expressed in transfected cells
The description is as above. Type of experiment: cell-based. The conditions noted are these: read-out: EC50; Ikaros; DF15 cells, 4 hours. The method, then:
as §1, §2

The test system of a further experiment is Aurora A. The conditions noted are these: 1 μM, 16 hours, knock-in Jurkat cells. The source says: (§3) The ability to knock degron tags in-frame into genomic loci to allow for compound-mediated modulation of endogenous protein levels was explored. Adeno-associated viral vectors were designed to deliver IKZF1 ZNF2_3-V5 tag-T2A-muThy1.1 tags to be knocked in-frame into the AURA (FIG. […]) or TOX locus (FIG. 20C-20D) in Jurkat cells in both the N- and C-terminal orientations. Jurkats were then electroporated with Cas9/guide RNA ribonucleoproteins. […] Cells were then pelleted, lysed, run on a denaturing protein gel, transferred to a membrane, probed with antibody and visualized with film.

The test system of a further experiment is tagged TOX. The conditions noted are these: 1 μM, 16 hours, knock-in Jurkat cells.
From the text: as §3

T1 sequence (P48729 whole entry): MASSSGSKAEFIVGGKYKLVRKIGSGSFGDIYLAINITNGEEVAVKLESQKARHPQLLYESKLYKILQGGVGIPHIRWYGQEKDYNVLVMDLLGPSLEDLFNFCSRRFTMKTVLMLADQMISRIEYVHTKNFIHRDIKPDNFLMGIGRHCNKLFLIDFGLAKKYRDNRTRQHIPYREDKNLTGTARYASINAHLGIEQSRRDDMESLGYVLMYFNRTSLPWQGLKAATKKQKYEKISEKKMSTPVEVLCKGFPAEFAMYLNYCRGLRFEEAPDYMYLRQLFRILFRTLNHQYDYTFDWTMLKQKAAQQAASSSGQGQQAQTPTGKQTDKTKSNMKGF
T1 sequence (Q96SW2 whole entry): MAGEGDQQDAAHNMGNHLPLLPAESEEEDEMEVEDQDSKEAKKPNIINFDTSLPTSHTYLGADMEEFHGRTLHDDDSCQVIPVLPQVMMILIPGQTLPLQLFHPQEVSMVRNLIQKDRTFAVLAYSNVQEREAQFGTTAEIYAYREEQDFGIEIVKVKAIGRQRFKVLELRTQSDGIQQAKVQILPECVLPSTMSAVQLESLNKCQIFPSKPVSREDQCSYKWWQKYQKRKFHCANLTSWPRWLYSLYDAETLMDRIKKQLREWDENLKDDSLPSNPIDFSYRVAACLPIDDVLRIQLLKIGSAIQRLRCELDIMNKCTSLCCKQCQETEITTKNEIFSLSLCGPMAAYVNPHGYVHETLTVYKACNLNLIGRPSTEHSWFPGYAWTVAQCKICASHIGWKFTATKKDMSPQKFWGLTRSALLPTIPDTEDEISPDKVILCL
T1 sequence (Q16531 whole entry partner): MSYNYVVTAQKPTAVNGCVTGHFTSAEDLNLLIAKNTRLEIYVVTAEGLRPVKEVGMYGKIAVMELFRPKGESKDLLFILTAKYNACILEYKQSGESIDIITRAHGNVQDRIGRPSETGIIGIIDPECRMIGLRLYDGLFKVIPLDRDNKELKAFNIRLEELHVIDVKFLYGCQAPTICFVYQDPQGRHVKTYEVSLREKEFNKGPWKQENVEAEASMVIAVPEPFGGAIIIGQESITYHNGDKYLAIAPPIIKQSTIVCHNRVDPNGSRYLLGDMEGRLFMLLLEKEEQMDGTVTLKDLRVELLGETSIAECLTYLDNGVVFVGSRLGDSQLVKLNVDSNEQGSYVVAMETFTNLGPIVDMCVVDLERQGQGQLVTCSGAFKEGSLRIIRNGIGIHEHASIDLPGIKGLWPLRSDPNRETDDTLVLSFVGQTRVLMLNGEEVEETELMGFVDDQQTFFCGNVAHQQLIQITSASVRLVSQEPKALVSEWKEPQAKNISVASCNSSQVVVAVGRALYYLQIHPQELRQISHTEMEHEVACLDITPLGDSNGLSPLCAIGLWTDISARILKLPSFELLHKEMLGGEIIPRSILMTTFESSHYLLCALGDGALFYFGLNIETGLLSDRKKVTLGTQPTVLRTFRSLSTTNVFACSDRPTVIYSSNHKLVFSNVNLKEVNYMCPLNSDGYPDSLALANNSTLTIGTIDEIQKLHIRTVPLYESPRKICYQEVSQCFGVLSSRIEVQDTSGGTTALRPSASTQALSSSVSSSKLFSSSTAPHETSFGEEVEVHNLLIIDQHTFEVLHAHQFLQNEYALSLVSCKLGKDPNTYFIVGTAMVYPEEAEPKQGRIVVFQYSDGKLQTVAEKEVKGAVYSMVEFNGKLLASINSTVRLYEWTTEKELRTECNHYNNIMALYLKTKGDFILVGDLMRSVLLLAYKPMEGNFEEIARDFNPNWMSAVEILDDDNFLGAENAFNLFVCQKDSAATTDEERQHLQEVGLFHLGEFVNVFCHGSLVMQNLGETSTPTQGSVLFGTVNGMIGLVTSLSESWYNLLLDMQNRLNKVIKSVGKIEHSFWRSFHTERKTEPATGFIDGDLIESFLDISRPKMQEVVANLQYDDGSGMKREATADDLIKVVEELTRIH
Sequence of IKZF1 ZNF2_3 tagged CD19 CAR (Q96SW2 whole entry): as the sequence (Q96SW2 whole entry) above
Sequence of IKZF1 ZNF2_3 tagged CD19 CAR (Q13422 other isoform, or with tags, fused parts or gaps): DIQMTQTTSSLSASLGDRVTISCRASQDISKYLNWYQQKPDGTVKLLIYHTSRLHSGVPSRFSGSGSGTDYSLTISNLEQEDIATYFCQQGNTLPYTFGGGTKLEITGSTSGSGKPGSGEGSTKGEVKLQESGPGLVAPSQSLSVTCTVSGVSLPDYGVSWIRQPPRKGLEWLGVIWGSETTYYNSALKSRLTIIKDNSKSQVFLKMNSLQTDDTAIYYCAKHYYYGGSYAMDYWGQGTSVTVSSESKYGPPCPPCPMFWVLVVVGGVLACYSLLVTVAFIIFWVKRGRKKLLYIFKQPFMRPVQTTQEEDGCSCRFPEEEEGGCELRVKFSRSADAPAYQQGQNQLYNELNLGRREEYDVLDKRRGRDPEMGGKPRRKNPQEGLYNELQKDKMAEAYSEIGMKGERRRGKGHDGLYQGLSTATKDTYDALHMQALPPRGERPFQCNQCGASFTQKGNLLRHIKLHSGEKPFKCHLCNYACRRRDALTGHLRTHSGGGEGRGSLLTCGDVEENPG
Sequence of IKZF1 ZNF2_3 tagged CD19 CAR (Q16531 whole entry, further chain): as the sequence (Q16531 whole entry partner) above
Sequence of CAR tagged with WT ZNF2_3 (Q96SW2 whole entry): as the sequence (Q96SW2 whole entry) above
Sequence of CAR tagged with WT ZNF2_3 (Q16531 whole entry, further chain): as the sequence (Q16531 whole entry partner) above
T3 sequence (Q13422 whole entry): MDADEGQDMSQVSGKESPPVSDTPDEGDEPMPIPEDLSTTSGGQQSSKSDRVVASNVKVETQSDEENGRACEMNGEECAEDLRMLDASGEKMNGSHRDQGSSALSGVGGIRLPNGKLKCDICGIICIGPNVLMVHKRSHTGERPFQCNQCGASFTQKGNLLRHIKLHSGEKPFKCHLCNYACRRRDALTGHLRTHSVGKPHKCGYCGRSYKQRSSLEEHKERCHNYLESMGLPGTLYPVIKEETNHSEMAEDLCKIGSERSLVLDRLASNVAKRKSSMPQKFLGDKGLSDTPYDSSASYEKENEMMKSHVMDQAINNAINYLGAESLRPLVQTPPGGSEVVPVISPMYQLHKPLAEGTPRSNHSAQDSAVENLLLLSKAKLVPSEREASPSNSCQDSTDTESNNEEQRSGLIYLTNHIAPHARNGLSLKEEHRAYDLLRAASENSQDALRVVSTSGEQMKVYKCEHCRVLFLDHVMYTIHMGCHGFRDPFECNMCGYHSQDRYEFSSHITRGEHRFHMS
T3 sequence (Q96SW2 whole entry): as the sequence (Q96SW2 whole entry) above
T3 sequence (Q16531 whole entry partner): as the sequence (Q16531 whole entry partner) above
T2 sequence (P15170 whole entry): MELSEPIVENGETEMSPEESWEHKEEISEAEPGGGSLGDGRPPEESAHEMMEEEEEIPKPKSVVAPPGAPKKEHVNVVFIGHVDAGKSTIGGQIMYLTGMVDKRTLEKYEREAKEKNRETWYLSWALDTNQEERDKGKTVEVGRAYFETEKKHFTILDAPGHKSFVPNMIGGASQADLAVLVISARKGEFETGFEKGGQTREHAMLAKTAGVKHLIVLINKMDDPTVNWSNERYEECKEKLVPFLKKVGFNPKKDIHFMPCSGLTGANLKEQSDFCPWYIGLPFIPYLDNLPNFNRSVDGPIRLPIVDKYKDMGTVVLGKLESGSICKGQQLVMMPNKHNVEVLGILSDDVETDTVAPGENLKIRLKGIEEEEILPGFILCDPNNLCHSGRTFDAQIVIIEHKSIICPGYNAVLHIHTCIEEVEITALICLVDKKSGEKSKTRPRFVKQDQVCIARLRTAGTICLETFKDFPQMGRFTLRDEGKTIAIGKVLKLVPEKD
T2 sequence (Q96SW2 whole entry): as the sequence (Q96SW2 whole entry) above
T2 sequence (Q16531 whole entry partner): as the sequence (Q16531 whole entry partner) above
Sequence of IKZF1 ZNF2-tagged CD19 CAR (Q13422 other isoform, or with tags, fused parts or gaps): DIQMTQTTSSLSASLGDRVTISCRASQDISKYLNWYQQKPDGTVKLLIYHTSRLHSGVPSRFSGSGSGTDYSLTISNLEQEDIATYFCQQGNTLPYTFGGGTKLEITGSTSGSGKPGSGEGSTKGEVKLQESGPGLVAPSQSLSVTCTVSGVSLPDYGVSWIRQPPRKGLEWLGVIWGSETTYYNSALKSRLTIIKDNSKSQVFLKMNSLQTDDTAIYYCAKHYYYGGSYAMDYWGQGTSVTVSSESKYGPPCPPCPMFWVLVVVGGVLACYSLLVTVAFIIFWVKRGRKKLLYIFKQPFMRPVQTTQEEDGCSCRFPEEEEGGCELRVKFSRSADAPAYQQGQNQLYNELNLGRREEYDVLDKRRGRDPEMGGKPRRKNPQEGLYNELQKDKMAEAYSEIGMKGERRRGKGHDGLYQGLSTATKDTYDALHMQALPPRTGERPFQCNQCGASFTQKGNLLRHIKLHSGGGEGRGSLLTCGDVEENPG
Sequence of IKZF1 ZNF2-tagged CD19 CAR (Q16531 whole entry, further chain): as the sequence (Q16531 whole entry partner) above
Sequence of IKZF1 ZNF2-tagged CD19 CAR (Q96SW2 whole entry): as the sequence (Q96SW2 whole entry) above

The compound `O=C1CCC(N2Cc3c(OCc4ccc(CN5CCN(c6ccc(F)cc6F)CC5)cc4)cccc3C2=O)C(=O)N1` (centres unmarked) [Compound A] displayed a CAR degradation in [1] of roughly 55%. Besides, in [2], the “CAR degradation (WT ZNF2_3 degron)” value is on record as “deep CAR degradation”. The “response of G6N mutant tagged CAR” value in experiment [3] is given as “failed to respond”. For the same compound, the “inhibition of CAR activity” value in [4] was “strongly inhibit CAR activity”. Moreover, the “Erk phosphorylation (pErk)” value in [5] is “attenuated”. Besides, on ePL-tagged CK1a, the “degradation of CK1a (in words)” value is listed as “degraded CK1a to a significant extent”. In addition, the DC50 was determined as 190 nM at ePL-tagged CK1a (read-out: EC50, CK1a, MDS-L cells, 4 hours); 39 nM on ePL-tagged GSPT1; 22 nM on ePL-tagged Ikaros. For the same compound, in the experiment on Aurora A, the “Aurora A levels (western blot)” value is reported as “decreased”. For the same compound, the “tagged TOX levels (western blot)” value in the experiment with tagged TOX is on record as “decreased”.
